pIC50: −log10 of the molar value.
biological target: RIPK1 recombination protein (Homo sapiens (Human), UniProt Q13546); test: RIPK1 kinase activity assay (ADP-Glo); assay type: biochemical; conditions: RIPK1 kinase activity, ADP-Glo, 10 μM ATP
How it was run: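 GST-purified recombinant human RIPK1 (40 nM final) with 10 μM ATP in NaCl/MgCl2/BSA/CHAPS/DTT kinase buffer, 3 h at room temperature; compounds at 10 to 0.005 μM (3-fold). ADP formed measured by ADP-Glo luminescence; inhibition normalized to no-enzyme and no-inhibitor controls, IC50 by curve fit.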

Chain of RIPK1 recombination protein (Q13546 other isoform, or with tags, fused parts or gaps): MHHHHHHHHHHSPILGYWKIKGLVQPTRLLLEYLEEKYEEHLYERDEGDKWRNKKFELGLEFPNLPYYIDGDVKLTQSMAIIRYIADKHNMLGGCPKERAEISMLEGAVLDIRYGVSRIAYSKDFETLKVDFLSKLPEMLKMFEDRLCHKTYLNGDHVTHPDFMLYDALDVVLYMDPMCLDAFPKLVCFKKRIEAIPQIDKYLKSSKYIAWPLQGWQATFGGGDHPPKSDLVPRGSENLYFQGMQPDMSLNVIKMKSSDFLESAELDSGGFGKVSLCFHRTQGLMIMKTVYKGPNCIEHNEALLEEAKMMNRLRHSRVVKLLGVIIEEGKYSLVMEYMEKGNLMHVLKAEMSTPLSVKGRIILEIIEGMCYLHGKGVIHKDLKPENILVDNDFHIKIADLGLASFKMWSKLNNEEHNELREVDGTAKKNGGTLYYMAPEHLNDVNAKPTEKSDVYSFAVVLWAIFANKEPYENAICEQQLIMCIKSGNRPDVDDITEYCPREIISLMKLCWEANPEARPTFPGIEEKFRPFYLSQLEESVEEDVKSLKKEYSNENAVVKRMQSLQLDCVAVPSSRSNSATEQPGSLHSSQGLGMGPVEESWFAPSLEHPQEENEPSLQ

| pIC50 | SMILES |
| --- | --- |
| 7.35 | CC(C)n1ncc2cnc(C(=O)NC3(c4ccc(-c5cncn([C@H](C)C6CC6)c5=O)cc4)CC3)nc21 [Compound 84, (R)—N-(1-(4-(1-(1-cyclopropylethyl)-6-oxo-1,6-dihydropyrimidin-5-yl)phenyl)cyclopropyl)-1-i-propyl-1H-pyrazolo[3,4-d]pyrimidine-6-carboxamide] |
| 7.52 | CC(C)n1ncc2cnc(C(=O)NC3(c4ccc(-c5cncn([C@@H](C)C6CC6)c5=O)cc4)CC3)nc21 [Compound 85, (S)—N-(1-(4-(1-(1-cyclopropylethyl)-6-oxo-1,6-dihydropyrimidin-5-yl)phenyl)cyclopropyl)-1-i-propyl-1H-pyrazolo[3,4-d]pyrimidine-6-carboxamide] |
| 7.39 | CC(C)n1ncc2cnc(C(=O)NC3(c4ccc(-c5cncn([C@H]6C[C@H](F)C6)c5=O)cc4)CC3)nc21 [Compound 87, N-(1-(4-(1-(trans-3-fluorocyclobutyl)-6-oxo-1,6-dihydropyrimidin-5-yl)phenyl)cyclopropyl)-1-i-propyl-1H-pyrazolo[3,4-d]pyrimidine-6-carboxamide] |
| 7.39 | CC(C)n1ncc2cnc(C(=O)NC3(c4ccc(-c5cncn([C@H]6C[C@@H](F)C6)c5=O)cc4)CC3)nc21 [Compound 88, N-(1-(4-(1-(cis-3-fluorocyclobutyl)-6-oxo-1,6-dihydropyrimidin-5-yl)phenyl)cyclopropyl)-1-i-propyl-1H-pyrazolo[3,4-d]pyrimidine-6-carboxamide] |
| 7.32 | CC(C)n1cncc(-c2ccc(C3(NC(=O)c4ncc5cnn([C@H](C)C6CC6)c5n4)CC3)cc2)c1=O [Compound 89, (R)-1-(1-cyclopropylethyl)-N-(1-(4-(1-i-propyl-6-oxo-1,6-dihydropyrimidin-5-yl)phenyl)cyclopropyl)-1H-pyrazolo[3,4-d]pyrimidine-6-carboxamide] |
| 7.27 | CC(C)n1cncc(-c2ccc(C3(NC(=O)c4ncc5cnn([C@@H](C)C6CC6)c5n4)CC3)cc2)c1=O [Compound 90, (S)-1-(1-cyclopropylethyl)-N-(1-(4-(1-i-propyl-6-oxo-1,6-dihydropyrimidin-5-yl)phenyl)cyclopropyl)-1H-pyrazolo[3,4-d]pyrimidine-6-carboxamide] |

Second part, the compound before the results:

| SMILES | pIC50 |
| --- | --- |
| CC(C)n1ncc2cnc(C(=O)NC3(c4ccc(-c5cncn(C6(C)CCC6)c5=O)cc4)CC3)nc21 [Compound 79] | 7.68 |
| CC(C)n1ncc2cnc(C(=O)NC3(c4ccc(-c5cncn(CC6(C)CC6)c5=O)cc4)CC3)nc21 [Compound 86] | 7.85 |
| CC(C)n1cncc(-c2ccc(C3(NC(=O)c4ncc5cnn(C(C)C)c5n4)CC3)c(F)c2Cl)c1=O [Compound 91] | 7.14 |
| CC(C)n1cncc(-c2cc(F)c(C3(NC(=O)c4ncc5cnn(C(C)C)c5n4)CC3)c(F)c2)c1=O [Compound 92] | 6.98 |
| CC(C)n1cncc(-c2ccc(C3(NC(=O)c4ncc5cnn(C(C)C)c5n4)CC3)c(F)c2F)c1=O [Compound 93] | 7.46 |
| CC(C)n1ncc2cnc(C(=O)NC3(c4cc(F)c(-c5cncn(CC6CC6)c5=O)cc4F)CC3)nc21 [Compound 94] | 7.57 |
| CC(C)n1ncc2cnc(C(=O)NC3(c4ccc(-c5cncn(CC6CC6)c5=O)c(F)c4F)CC3)nc21 [Compound 95] | 7.55 |

From patent US20240002388A1, “PYRIMIDINONE COMPOUNDS AND USES THEREOF” (HUTCHISON MEDIPHARMA LIMITED, priority 2020, published 2024)
